# Reference: article PMC10877577 (ACS Chemical Biology, 2024)
# “Also recorded” adds a separate entry of the source.
# Tests used:
# aMinoC1-peptide complex = assay: SPR rechallenge: small-molecule-driven dissociation of peptide-Fc from immobilized aMinoC1; assay type: binding; details: peptide-Fc 100 nM, small molecule 1 μM
# Procedure: Binding assays were carried out using 1x HBS-EP+ running buffer. Various concentrations (2.5 μM with 2-fold serial dilutions) of the analyte were injected for 150 s at 30 μL/min with 150 s dissociation time. Glycine-HCl (pH 2.0) was used as the regeneration buffer for the sensor chips. For the rechallenge experiment, aMinoC1 was immobilized on a CM5 sensor chip and CX7C peptide-Fc conjugates were loaded at 100 nM and injected as the analyte for 150 s at 30 μL/min. Following the injection of peptide-Fc, a small molecule at 1 μM was injected for 300 s at 30 μL/min, using dual injection function on a Biacore 8k instrument, to dissociate the peptide-Fc from the aMinoC1-peptide complex. The system was then washed using HBS-P^+ buffer for 300 s at 30 μL/min prior to rechallenge with peptide-Fc. The cycle was repeated three times following a final dissociation step of 300 s. For the alanine scanning experiments, the anti-minocycline antibody (sdAb-muIgG2a-Fc fusion) was captured on a Protein A series S sensor chip, to a density of 3000 RU. […] Glycine-HCl (pH 1.5) was used as the regeneration buffer. In each case, flow cell 1 was used for reference subtraction, and a “0 concentration” sensogram of buffer alone was used as a double reference subtraction to factor for drift. Data analysis was carried out using Biacore T200 Evaluation Software, version 3.0, and Biacore Insight evaluation software. The 1:1 Langmuir binding model was used to calculate the association (ka), dissociation (kd) rate constants, and equilibrium dissociation constant (KD).
# [1] = test system: HEK-293T transduced with the aMinoC1 transmembrane receptor; assay: Flow cytometry of peptide-muIgG2a Fc binding to cells with aMinoC1 transmembrane receptor; assay type: cell-based, human; details: GWARA, HWAQA, PWAYS, QWAMM, increasing minocycline, caffeine 100 μM
# Procedure: Flow cytometry was performed using the MACSQuant Analyzer 10 or MACSQuant X (Miltenyi Biotec). All flow cytometry data was analyzed using FlowJo v.7.6.2 software (Tree Star Inc., Ashland, OR). Cell staining was carried out by incubation with PBS containing the recommended concentration of antibodies at RT for 30 min. PBS washes were carried out between antibody staining. Cell viability was determined using viability dye SYTOX Blue Dead Cell Stain (ThermoFisher) prior to flow cytometric analysis. Cells were first gated for singlet population identified by FSC-H and FSC-A. Next, live cells were identified using a viability dye, followed by gating for target cell populations. The antibodies used in the study are as follows: CD3 PECy7 (Biolegend, 317334), Human CD34 APC-conjugated antibody (R&D system, FAB7227A), Human CD34 Alexa Fluor 488-conjugated antibody (R&D system, FAB7227G), Streptavidin PE (Biolegend, 405204), APC antihuman EGFR antibody (Biolegend, 352905), Alexa Fluor 488 antihuman EGFR antibody (Biolegend, 352907), PE anti-HA.11 Epitope Tag antibody (Biolegend, 901517), Anti-M13-HRP (Sino Biologics, 1197 mm05T-H), Anti-Myc-HRP (Genscript, A00863), and SYTOX Blue Dead Cell Stain (ThermoFisher, S10274).
# [2] = test system: MinoCAR-transduced PBMC against SKOV3 EGFR+ target cells; assay: Tunability and reversibility assays (Incucyte kinetics of cytotoxicity); assay type: cell-based, human; details: minocycline 0 to 10 μM, 1:2 E/T
# Procedure: EGFR+ SKOV3-mKate cells were seeded at 1.0 × 10^4 cells per well in a TC-treated flat-bottomed 96-well plate. For reversibility experiments, MinoCAR ON–OFF kinetics were tested by preactivating CAR T cells by incubating cells for 2 h on plates precoated with recombinant EGFR (10 μg/mL). CAR T cells were washed using 15 mL of PBS prior to coculture. […] Cells were then washed using 15 mL of PBS prior to coculture. Untreated CAR T cells were used as a control and were directly preceded to coculturing set. […] The Incucyte ZOOM Live-Cell Analysis System was used to carry out image capture at a rate of one image every 1 h for 150 h. […] The image capture rate of each condition was set at 1 image per hour for 72 h.
# [3] = test system: MinoUniCAR-transduced PBMCs; assay: MinoUniCAR IFN-γ release with EGFR-peptide adaptor; assay type: cell-based, human; details: 10 vs 0 μM minocycline
# Procedure: (§1) IFN-γ, IL2, and IL12 secretion was measured by collecting the supernatant from the respective cell-based assay and frozen at −20 °C prior to analysis by ELISA. IFN-γ, IL2, and IL12 ELISAs were carried out using the Human IFN-γ ELISA MAX Deluxe kit, Human IL2 ELISA MAX Deluxe kit, and Human IL12 (p70) ELISA MAX Deluxe kit in accordance with the manufacturer’s instructions (BioLegend).
# (§2) Transduced PBMCs were stained using RQR8 expression and V5 markers. Cells were then normalized to 50% efficiency by diluting with nontransduced T cells. The tumor-targeting adaptor protein (EGFR sdAb) fused to the GWARA peptide was separately expressed by CHO cell transient transfection and purified by His-tag chromatography. […] IFN-γ secretion was measured as described above.
# [4] = test system: MinoUniCAR-transduced PBMCs against SupT1-EGFR+ cells; assay: MinoUniCAR cytotoxicity with EGFR-peptide adaptor; assay type: cell-based, human; details: 10 μM minocycline, 24 h, 1:2 E/T
# Procedure: Transduced CAR T cells were determined by staining for the transduction marker RQR8 and normalized by the addition of nontransduced T cells. Effector cells were cocultured with 5.0 × 10^4 number of target cells (SupT1-NT, SupT1-EGFR+, SKOV3-mKate) to achieve the desired effector cell to target ratio. Where appropriate, minocycline was supplemented as a part of the culture conditions. Cocultures were incubated for 24–72 h at 37 °C and 5% CO2. After incubation, plates were centrifuged at 400g for 5 min, and the supernatant containing secreted cytokines was collected for cytokine analysis. Cells were stained with anti-hCD34-APC and anti-CD3-PeCy7 to differentiate effector T cells and target cells. Cells were washed with 300 μL o PBS and stained with SYTOX Blue Dead Cell Stain dye. The percentage of target cell survival was measured relative to the number of live target cells cocultured with nonspecific CAR T cells or nontransduced PBMCs.
# as §2
# [5] = test system: MyD88/CD40 signaling in transduced PBMCs; assay: IFN-γ secretion of PBMCs with aMinoC1/GWARA-MyD88/CD40 module; assay type: cell-based, human; details: increasing concentrations of minocycline
# Procedure: as §1
# [6] = test system: GWARA-flexi-IL12 secretion from transduced PBMCs; assay: IL12 secretion assay (KDEL retention system); assay type: cell-based, human; details: minocycline up to 2.5 μM
# Procedure: as §1
# Transduced PBMCs were stained for the independent HA expression marker by using an anti-HA-PE antibody to determine transduction efficiency. Cells were normalized to 60% using nontransduced T cells prior to assay set up. For the assay set up, 0.5 × 10^4 transduced cells were cultured in RPMI (RPMI-1640) supplemented with 10% fetal bovine serum (FBS), 2 mM GlutaMAX, and IL2 at a concentration of 100 UI/mL. […] IL12 ELISA was carried out following manufacturer’s instructions (BioLegend, 431704).
# [7] = in vivo; cited from earlier work
smiles,measurement,setting,value
CN(C)c1ccc(O)c2c1C[C@H]1C[C@H]3[C@H](N(C)C)C(O)=C(C(N)=O)C(=O)[C@@]3(O)C(O)=C1C2=O [minocycline],GWARA-Fc dissociation from immobilized aMinoC1 on small-molecule injection,aMinoC1-peptide complex,acceleration of GWARA-Fc dissociation; also recorded: specifically reversed
same,"peptide-Fc (HWAQA, PWAYS and QWAMM) dissociation from immobilised aMinoC1 on small-molecule injection",aMinoC1-peptide complex,acceleration
same,peptide-muIgG2a Fc binding to membrane-bound aMinoC1 in presence of small molecule,[1],Dose-dependent reduction of peptide-muIgG2a Fc binding
same,peptide-muIgG2a Fc binding to membrane-bound aMinoC1 in presence of small molecule,[1]; listed as Minocycline,concentration-dependent reduction in peptide binding
same,SKOV3 target cell killing kinetics,[2],dose-dependent decrease in SKOV3 target cell killing
same,cytokine (IFN-γ) reduction,[3],10 fold
same,target cell survival,[4],95%
same,decrease of IFN-γ secretion,[5],2 fold
same,IL12 release,"[6]; day 2, aMinoC1-KDEL construct",up to 150 pg/mL
same,IL12 release,"[6]; day 7, aMinoC1-KDEL construct",≤ 2.2 µg/mL
same,blood–brain barrier crossing,[7],can cross the blood–brain barrier
same,half-life in blood,[7],12 to 24 h
same,time of serum concentration peak,[7],2 to 3 h
